Consider 55 molecules from patent US20090142269A1, “ISOTOYPICALLY-LABELED BENZOTHIAZOLE COMPOUNDS AS IMAGING AGENTS FOR AMYLOIDOGENIC PROTEINS” (UNIVERSITY OF OITTSBURGH-OF THE COMMONWEALTH SYSTEM OF …, priority 2005, published 2009).

Tested on in the first series: not listed separately
As to the kind of experiment: Baboon brain entry study (PET time-activity curves). The settings on record: 40 kg baboon, 8 mCi intravenously, PET brain imaging over 2 h post injection. Format: in vivo. How it is done: A 40 kg baboon was anesthesized, immobilized, and placed on a ventilator. The baboon was positioned in a PET scanner to image the brain, and a transmission scan was performed to correct for attenuation. The baboon was injected intravenously with a solution containing 8 mCi of [F-18]-6-Methoxy-2-(4′-fluorophenyl)benzothiazole, and the brain was imaged in a series of increasing data collection time bins over 2 h post injection. Following data acquisition, the images were reconstructed and regions of interest were drawn. Decay and […] corrected time-activity curves (TAC) were generated for each of the regions to determine the quantitative time course of radioactivity in each brain region.
Turning to `COc1ccc2nc(-c3ccc([18F])cc3)sc2c1` [[F-18]-6-Methoxy-2-(4′-fluorophenyl)benzothiazole], the “brain penetration of the radiotracer” value is reported as “excellent brain penetration” and the “clearance of radioactivity from normal baboon brain” value is given as “rapid clearance”.

The target of a further series is T1, synthetic Aβ(1-40) (Homo sapiens, UniProt P05067).
T1 construct: analyzed, using synthetic Aβ(1-40)
T1 sequence (P05067 672-711): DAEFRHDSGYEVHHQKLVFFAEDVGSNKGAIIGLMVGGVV
As to the kind of experiment: Competition of [3H]BTA-1 binding from synthetic Aβ(1-40). The settings on record: in vitro, aggregated amyloid. How it is done:
The characteristics of benzothiazole derivative binding were analyzed, using synthetic Aβ(1-40) and 2-(4′-[^3H]methylamino-phenyl)-benzothiazole ([^3H]BTA-1) in phosphate-buffered saline (pH 7.4), as previously described. Klunk et al., Life Sci. 69:1471 (2001); Mathis et al., Bioorg. Med. Chem. Lett. 12: 295 (2002).
The characteristics of benzothiazole derivative binding were analyzed using synthetic Aβ(1-40) and 2-(4′ [^3H]methylamino-phenyl)-benzothiazole ([^3H]BTA-1) in phosphate-buffered saline (pH 7.4), as previously described. Klunk et al., Life Sci. 69:1471 (2001); Mathis et al., Bioorg. Med. Chem. Lett., 12:295 (2002). The table below lists the inhibition constants (Ki) of exemplary benzothiazole compounds shown for competition of [^3H]BTA-1 binding from synthetic Aβ(1-40).
For the molecule `COc1ccc2nc(-c3ccc([18F])cc3)sc2c1` [[F-18]-6-Methoxy-2-(4′-fluorophenyl)benzothiazole], the “affinity of the ligand in vitro for aggregated amyloid” value is “relatively high affinity”.

The same series, now with this note: inhibition constant for competition of [3H]BTA-1 binding from synthetic Aβ(1-40), phosphate-buffered saline pH 7.4.
One may read the Ki as a measure of affinity in units of concentration, obtained from inhibition or displacement. A low value points to a stronger hold on the target. Turning to `COc1cc(O)c2nc(-c3ccc(F)cc3)sc2c1`, the Ki was 51.6 nM. `CNc1ccc(-c2nc3ccc(O)cc3s2)c(N)c1` yielded a Ki of 5.4 nM. Turning to `Oc1cccc2nc(-c3ccc(F)cc3)sc12`, the inhibitory constant (Ki) is 186 nM. On the same count and under the same terms, the result for `CS(=O)(=O)c1ccc2nc(-c3ccc(F)cc3)sc2c1` reads 1270 nM; that for `Ic1ccc(-c2nc3ccccc3s2)cc1`, 2.6 nM; that for `Oc1ccc2nc(-c3ccc(CF)cc3)sc2c1`, 46.6 nM. Still for that read-out and setting: the result for `Oc1ccc2nc(-c3ccc(F)c(F)c3)sc2c1` reads 18.9 nM. Still for that read-out and setting: with `Brc1ccc(-c2nc3ccccc3s2)cc1` the figure was 8.8 nM; with `Oc1ccc2nc(-c3ccc(F)c(Cl)c3)sc2c1`, 130 nM. Molecule `Nc1cc(F)ccc1-c1nc2ccc(O)cc2s1` had an inhibition constant Ki of 14.8 nM. Same read-out and setting: with `Nc1ccccc1-c1nc2ccccc2s1` the figure was 19.6 nM; with `COc1ccc2nc(-c3ccc(F)cc3)sc2c1`, 6 nM. On the same count and under the same terms, the result for `Fc1ccc(-c2nc3ccccc3s2)cc1` reads 43.8 nM; that for `Nc1cccc(F)c1-c1nc2ccc(O)cc2s1`, 14 nM; that for `COc1ccc(-c2nc3ccc(N(C)C)cc3s2)cc1`, 1.3 nM.

In the case of `COc1ccc2nc(-c3ccc(F)cc3O)sc2c1`, the Ki came out at 1.1 nM. The same measure, in the same setting: the result for `CNc1ccc(-c2nc3ccccc3s2)cc1CCCF` reads 76.9 nM; that for `COc1ccc2sc(-c3ccc(F)cc3)nc2c1`, 13.5 nM.

`CNc1ccc2nc(-c3ccc(OC)cc3)sc2c1` came in with a Ki of 1.8 nM. On the same count and under the same terms, the result for `Oc1ccc2nc(-c3ccc(F)cc3O)sc2c1` reads 31.3 nM. Still for that read-out and setting: with `CNc1c(F)cccc1-c1nc2ccc(O)cc2s1` the figure was 46 nM; with `Nc1cc(F)ccc1-c1nc2ccccc2s1`, 4.9 nM; with `Nc1c(F)c(F)c(-c2nc3ccc(O)cc3s2)c(F)c1F`, 1000 nM. Still for that read-out and setting: with `CNc1ccc2nc(-c3ccc(O)cc3F)sc2c1` the figure was 1.2 nM; with `COc1cccc2nc(-c3ccc(F)cc3)sc12`, 14.9 nM.

Consider `CNc1ccc2nc(-c3ccc(F)cc3)sc2c1`, for which the Ki turned out to be 7.4 nM. For the molecule `COc1ccc2nc(-c3ccc(F)c(F)c3)sc2c1`, the affinity, expressed as Ki, was 154 nM. The same measure, in the same setting: with `CN(C)c1ccc2nc(-c3ccc(O)cc3)sc2c1` the figure was 10.7 nM. In the case of `Oc1cccc2sc(-c3ccc(F)cc3)nc12`, affinity was put at a Ki of 381 nM. Still for that read-out and setting: the result for `CNc1c(F)c(F)c(-c2nc3ccc(OC)cc3s2)c(F)c1F` reads 26 nM; that for `Oc1ccc2nc(-c3ccc(F)cc3)sc2c1`, 180 nM; that for `Cc1ccc(-c2nc3ccccc3s2)cc1`, 19.1 nM. `Nc1ccc(F)cc1-c1nc2ccc(O)cc2s1`: the Ki was determined as 21.8 nM. Still for that read-out and setting: with `CNc1c(F)c(F)c(-c2nc3ccc(O)cc3s2)c(F)c1F` the figure was 273 nM; with `O=[N+]([O-])c1cc(F)ccc1-c1nc2ccccc2s1`, 811 nM. On the same count and under the same terms, the result for `FCCOc1ccc2nc(-c3ccc(F)cc3)sc2c1` reads 9.8 nM. On the same count and under the same terms, the result for `CNc1ccc2nc(-c3ccc(O)c(F)c3)sc2c1` reads 5.3 nM; that for `FCCCOc1ccc2nc(-c3ccc(F)cc3)sc2c1`, 27.2 nM; that for `COc1ccc2sc(-c3ccc(F)cc3)nc2c1OC`, 81.2 nM.

Take `COc1ccc(OC)c2sc(-c3ccc(F)cc3)nc12`: the affinity, expressed as Ki, was 334 nM. Consider `CNc1ccc(-c2nc3ccc(OCCOCCOCCF)cc3s2)cc1`, for which the inhibitory constant (Ki) was 4.9 nM.

For `Nc1ccc2nc(-c3ccc(F)cc3)sc2c1`, the affinity corresponds to a Ki of 84.8 nM. Same read-out and setting: with `Nc1c(F)cccc1-c1nc2ccc(O)cc2s1` the figure was 3.1 nM; with `CNc1cc(N)ccc1-c1nc2ccc(O)cc2s1`, 94.9 nM; with `CNc1cc(F)ccc1-c1nc2ccc(O)cc2s1`, 48.8 nM. Still for that read-out and setting: with `COc1ccc2nc(-c3c(F)c(F)c(N)c(F)c3F)sc2c1` the figure was 119 nM; with `COc1cccc2sc(-c3ccc(F)cc3)nc12`, 608 nM. Same read-out and setting: with `OCc1ccc(-c2nc3ccc(O)cc3s2)cc1` the figure was 311 nM; with `COc1ccc2nc(-c3ccc(F)cc3OC)sc2c1`, 16.6 nM; with `COc1cc(OC)c2sc(-c3ccc(F)cc3)nc2c1`, 33.5 nM. As to `N#Cc1ccc2nc(-c3ccc(F)cc3)sc2c1`, the Ki was 133 nM. Same read-out and setting: with `COc1cc2nc(-c3ccc(F)cc3)sc2cc1OC` the figure was 88.3 nM; with `Oc1ccc2sc(-c3ccc(F)cc3)nc2c1`, 504 nM; with `COc1cc(OC)c2nc(-c3ccc(F)cc3)sc2c1`, 116 nM.
